Measured values taken from PubChem BioAssay (NCI).
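Grown in 96-well plates, cells were treated for 48 hours with each compound at five concentrations. Insufficient inhibition: endpoint recorded as highest concentration tested. GI50 = concentration required for 50% inhibition of growth. TGI: concentration producing complete growth inhibition.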

Assays:
Experiment in all cases: inhibition of tumour cell growth, NCI panel, 48 h
[1] = system: NCI-H23 lung
[2] = system: SF-268 CNS
[3] = system: OVCAR-3 ovarian
[4] = system: HCT-15 colon
[5] = system: OVCAR-5 ovarian
[6] = system: LOX IMVI melanoma
[7] = system: A549 NSCLC
[8] = system: HOP-62 NSCLC
[9] = system: NCI-H226 lung

CCOC(=O)CCn1[nH]c(=O)c(Cl)c(Cl)c1=O
TGI [1]: > 100 µM
TGI [2]: > 100 µM
TGI [3]: > 100 µM
TGI [4]: > 100 µM
TGI [5]: > 100 µM
TGI [6]: > 100 µM
TGI [7]: > 100 µM
TGI [8]: > 100 µM
TGI [9]: > 100 µM

Cc1nc2ccccc2c(=O)n1-c1ccccc1F
TGI [1]: > 100 µM
TGI [2]: > 100 µM
TGI [3]: > 100 µM
TGI [4]: > 100 µM
TGI [5]: > 100 µM
TGI [6]: > 100 µM
TGI [7]: > 100 µM
TGI [8]: > 100 µM
TGI [9]: > 100 µM

CN(C)C(c1ccccc1)C(O)c1ccccc1 (stereo not given)
TGI [1]: > 100 µM
TGI [2]: > 100 µM
TGI [3]: > 100 µM
TGI [4]: > 100 µM
TGI [6]: > 100 µM
TGI [7]: > 100 µM
TGI [8]: > 100 µM
TGI [9]: > 100 µM

COc1ccc2c3c(coc13)C(CCC(=O)O)CC2 (stereo not given)
TGI [1]: > 100 µM
TGI [3]: > 100 µM
TGI [4]: > 100 µM
TGI [6]: > 100 µM
TGI [7]: > 100 µM
TGI [8]: > 100 µM

CC(C)N1CN(C(C(=O)N[C@@H]2C(=O)N3C2SC(C)(C)C3C(=O)O)c2ccccc2)CSC1=S (stereo not given in full)
TGI [1]: > 100 µM
TGI [2]: > 100 µM
TGI [3]: > 100 µM
TGI [4]: > 100 µM
TGI [5]: > 100 µM
TGI [6]: > 100 µM
TGI [8]: > 100 µM

CCc1ccc(Nc2ccc([N+](=O)[O-])cc2[N+](=O)[O-])cc1
TGI [1]: > 100 µM
TGI [3]: > 100 µM
TGI [4]: > 100 µM
TGI [5]: > 100 µM
TGI [7]: > 100 µM
TGI [8]: > 100 µM
TGI [9]: 99.8 µM

CCOc1ccc2c(c1)[n+]([O-])c(-c1nc3ccccc3s1)c(N)[n+]2[O-]
TGI [1]: > 100 µM
TGI [2]: > 100 µM
TGI [3]: > 100 µM
TGI [4]: > 100 µM
TGI [5]: > 100 µM
TGI [6]: > 100 µM
TGI [7]: > 100 µM
TGI [8]: > 100 µM
TGI [9]: > 100 µM

COc1ccc(C2SCC(=O)N2NC(=O)Nc2c(C)nc3ccccn23)cc1 (stereo not given)
GI50 [2]: 39.7 µM
TGI [2]: > 100 µM
GI50 [3]: > 100 µM
TGI [3]: > 100 µM
GI50 [4]: > 100 µM
TGI [4]: > 100 µM
GI50 [5]: 28.9 µM
TGI [5]: > 100 µM
GI50 [6]: 27.1 µM
TGI [6]: > 100 µM
GI50 [7]: > 100 µM
TGI [7]: > 100 µM
GI50 [8]: 16.4 µM
TGI [8]: 31.1 µM
GI50 [9]: 42.8 µM
TGI [9]: > 100 µM

COc1ccc(/C=C\c2cc(OC)c(OC)c(OC)c2)cc1OC(=O)NCCN(C)C
TGI [1]: 0.00431 µM
GI50 [2]: 0.0336 µM
TGI [3]: 0.00347 µM
TGI [6]: > 100 µM
GI50 [7]: < 0.028 µM
TGI [7]: > 41.3 µM
TGI [8]: > 100 µM
TGI [9]: 0.0464 µM

COC1=CC2(C=CC1=O)c1cc(OC)c(OC)cc1CCN2C(=O)c1ccccc1 (stereo not given)
TGI [1]: > 100 µM
TGI [3]: > 100 µM
TGI [4]: > 100 µM
TGI [6]: > 100 µM
TGI [7]: > 100 µM
TGI [9]: > 100 µM

COc1cc2c(c(OC)c1)C1(CC(CC#N)C2)SCCS1 (stereo not given)
TGI [2]: > 100 µM
TGI [3]: > 100 µM
TGI [4]: > 100 µM
TGI [7]: > 100 µM
TGI [8]: > 100 µM
TGI [9]: > 100 µM

N.N.O=C([O-])P(=O)([O-])[O-].[Na+].[Pt+4]
GI50 [1]: > 100 µM
TGI [1]: > 100 µM
GI50 [2]: > 100 µM
TGI [2]: > 100 µM
GI50 [3]: > 100 µM
TGI [3]: > 100 µM
GI50 [4]: > 100 µM
TGI [4]: > 100 µM
GI50 [7]: > 100 µM
TGI [7]: > 100 µM
GI50 [8]: > 100 µM
TGI [8]: > 100 µM

C/C=C1/C(=C/c2[nH]c(/C=c3\[nH]/c(=C/C4=NC(=O)C(CC)=C4C)c(C)c3CCC(=O)O)c(CCC(=O)O)c2C)NC(=O)C1C (stereo not given)
GI50 [1]: > 150 µg/mL
TGI [1]: > 150 µg/mL
GI50 [2]: > 150 µg/mL
TGI [2]: > 150 µg/mL
GI50 [4]: > 150 µg/mL
TGI [4]: > 150 µg/mL
GI50 [5]: > 150 µg/mL
TGI [5]: > 150 µg/mL
GI50 [6]: > 150 µg/mL
TGI [6]: > 150 µg/mL
GI50 [7]: > 150 µg/mL
TGI [7]: > 150 µg/mL
GI50 [8]: > 150 µg/mL
TGI [8]: > 150 µg/mL
GI50 [9]: > 150 µg/mL
TGI [9]: > 150 µg/mL

CCO/N=C(/N)c1ncn(Cc2ccccc2)c1NCC(OCC)OCC
TGI [2]: > 100 µM
TGI [3]: > 100 µM
TGI [4]: > 100 µM
TGI [5]: > 100 µM
TGI [6]: > 100 µM
TGI [7]: > 100 µM
TGI [8]: > 100 µM
TGI [9]: > 100 µM

COc1ccc(CNc2nc3cc(C(F)(F)F)ccc3nc2C)cc1OC
TGI [1]: > 100 µM
TGI [2]: > 100 µM
TGI [3]: > 100 µM
TGI [4]: > 100 µM
TGI [5]: > 100 µM
TGI [6]: 68.7 µM
TGI [7]: > 100 µM
TGI [8]: 69.9 µM

CO[C@H]1C=C[C@@]23c4cc5c(cc4CO[C@]2(O)CN(C)[C@H]3C1)OCO5
TGI [1]: > 100 µM
TGI [2]: > 100 µM
TGI [3]: > 100 µM
TGI [4]: > 100 µM
TGI [5]: > 100 µM
TGI [6]: > 100 µM
TGI [7]: > 100 µM
TGI [9]: > 100 µM

COc1cccc(N2C(=O)[C@H]3CC(C)c4c([nH]c5ccccc45)[C@H]3C2=O)c1 (stereo not given in full)
TGI [1]: > 100 µM
TGI [2]: > 100 µM
TGI [3]: > 100 µM
TGI [4]: > 100 µM
TGI [6]: > 100 µM
TGI [7]: > 100 µM
TGI [8]: 42.5 µM
TGI [9]: > 100 µM

CC(C)CCCC(=O)CCCCCCC(=O)CCN(O)C(=O)C(N)CO (stereo not given)
TGI [1]: 32.1 µM
TGI [2]: 60 µM
TGI [3]: 41.6 µM
TGI [4]: 42.6 µM
TGI [5]: 50.6 µM
TGI [6]: 30.9 µM
TGI [8]: 40.8 µM
TGI [9]: 35.6 µM

CC(C)c1ccc(C(c2ccc(OCC(=O)O)cc2)c2ccc(C(C)C)cc(=O)c2O)c(O)c(=O)c1
TGI [1]: 20.4 µM
TGI [3]: 8.31 µM
TGI [4]: 22.9 µM
TGI [6]: 14.8 µM
TGI [7]: 21.3 µM
TGI [8]: 26.2 µM
